# Measurements as given in article PMC5417072 (Anticancer research, 2016).
# Molecular target: SIRT2 (sirtuin-2) (Homo sapiens, UniProt Q8IXJ6)
# Experiment: in vitro enzymatic assay
# Format: biochemical
# Chain of SIRT2 (sirtuin-2) (Q8IXJ6 2-389): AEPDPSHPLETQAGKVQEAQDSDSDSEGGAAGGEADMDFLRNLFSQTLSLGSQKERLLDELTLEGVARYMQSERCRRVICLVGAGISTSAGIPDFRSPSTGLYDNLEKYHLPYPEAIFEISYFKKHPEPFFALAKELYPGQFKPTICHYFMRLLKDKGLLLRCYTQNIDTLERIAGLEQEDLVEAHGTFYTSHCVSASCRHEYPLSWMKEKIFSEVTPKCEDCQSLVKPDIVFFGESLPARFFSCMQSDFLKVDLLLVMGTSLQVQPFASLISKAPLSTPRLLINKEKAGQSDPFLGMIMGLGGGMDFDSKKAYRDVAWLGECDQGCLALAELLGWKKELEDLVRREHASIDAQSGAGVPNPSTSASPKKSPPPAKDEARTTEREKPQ
compound,measurement,value
"COC(=O)[C@H](CCC(=O)Nc1cccc2c1ccn2Cc1cccc(C(N)=O)c1)NC(=O)OCc1ccccc1 [compound 6, (S)-Methyl 2-(((benzyloxy)carbonyl)amino)-5-((1-(3-carbamo-ylbenzyl)-1H-indol-4-yl)amino)-5-oxopentanoate]",IC50,33 µM
